{"source": "patent US20220008425A1", "about": "“Pharmaceutical Composition for Treating B-Cell Lymphoma” (FUNDAN UNIVERSITY SHANGHAI CANER CENTER, priority 2018, published 2022)", "key": {"LY8-RCHO cells": {"tested_on": "LY8-RCHO cells", "conditions": "48 hours", "protocol": "(§1) Further, we constructed LY8 and NU-DUL-1 cells resistant to chemotherapeutic drugs. Briefly, LY8-ORI and NU-DUL-1-ORI cells were treated with doxorubicin (Selleck Chemicals, Houston, Tex.) and vincristine (Selleck Chemicals, Houston, Tex.) at a clinical ratio of 50:1.4 by increasing the concentration. […] These cells were then treated with 2 μg/mL of 4-hydroperoxycyclophosphamide (4-HC) (Santa Cruz Biotechnology, Inc., Santa Cruz, Calif.) every 21 days for 3 cycles. The obtained CHO-resistant cells are referred to as LY8-CHO and NU-DUL-1-CHO, respectively. CHO-resistant cells were treated with doxorubicin, vincristine, and 4-HC every 22 days to maintain drug tolerance to CHO. […] To maintain RCHO resistance, LY8-RCHO cells and NU-DUL-1-RCHO cells were treated with 32 μg/mL of rituximab containing 20% (v/v) of NHS every 22 days, followed by treatment with doxorubicin, vincristine, and 4-HC. After 48 hours of treatment with doxorubicin, vincristine and 4-HC, drug resistance to CHO and RCHO was determined by a series of CCK-8 assays.\n(§2) Cells were seeded in a 96-well plate at a density of 1×10^4/100 μL/well. Cells were pretreated with IPI-145, abemaciclib, AZD4547, PF-573228, R788, or saracatinib at increasing concentrations with or without CHO for 48 hours prior to performing CytoTox-Glo™ cytotoxicity assay. We performed cytotoxicity assay by using a CytoTox-Glo™ cytotoxicity assay kit (Promega Inc., Madison, Wis.) according to their instructions. Briefly, 50 μL of CytoTox-Glo™ cytotoxicity assay reagent was added to all wells, mixed by orbital shaking, and then incubated for 15 minutes at room temperature. Luminescence of experimental dead cells was detected with a Synergy HT microplate reader (BioTek, Biotek Winooski, Minn.), wherein 50 μL of lysate was added to all wells, mixed and incubated for 15 minutes at room temperature prior to detection of total luminescence. Cytotoxicity was calculated according to the following formula: Cytotoxicity (%)=Experimental dead cell luminescence/Total luminescence×100%."}, "NU-DUL-1-RCHO cells": {"tested_on": "NU-DUL-1-RCHO cells", "conditions": "48 hours", "protocol": "as §1, §2"}, "[1]": {"tested_on": "CD20 and mCRPs (CD46, CD55, CD59) in RCHO-resistant LY8 cells", "experiment": "FACS analysis of membrane expression of CD46, CD55, CD59 and CD20", "format": "cell-based, human", "protocol": "(§3) After being washed with PBS, cells were incubated with fluorescein-conjugated antibody for 30 minutes, followed by washing and resuspension of cells in PBS. Flow cytometry analysis was performed on a cytomics FC500 MPL instrument (Beckman Coulter, Inc., Brea, Calif.) and FlowJo software (Ashland, Inc., OR) was used for analysis. Cells were then sorted according to their relative fluorescence intensity by using a MoFlo XDP sorter (Beckman Coulter Inc., Brea, Calif.)."}, "[2]": {"tested_on": "CD20 and mCRPs (CD46, CD55, CD59) in RCHO-resistant NU-DUL-1 cells", "experiment": "FACS analysis of membrane expression of CD46, CD55, CD59 and CD20", "format": "cell-based, human", "protocol": "as §3"}, "[3]": {"tested_on": "AKT phosphorylation, SOX2, FGFR1/2 and CSC-associated molecules in NU-DUL-1-RCHO cells", "experiment": "Immunoblot analysis", "format": "cell-based, human"}, "[4]": {"tested_on": "SOX2 in tumor tissues grown from LY8-RCHO-Luc cells", "experiment": "SOX2 immunohistochemical staining of tumor tissues from the transplantation model", "format": "in vivo, SCID mice", "conditions": "tumors from LY8-RCHO-Luc cells; compared with saline control", "description": "(§4) Construction of a transplantation model: we transduced LY8-RCHO cells and NU-DUL-1-RCHO cells with lentiviruses overexpressing the firefly luciferase gene to generate stable cells expressing firefly luciferase, referred to as LY8-RCHO-Luc cells and NU-DUL-1-RCHO-Luc cells, respectively. 8-week-old female SCID mice were purchased from SLAC (Shanghai laboratory animal center). The LY8-RCHO-Luc cells and NU-DUL-1-RCHO-Luc cells were resuspended in PBS prior to intraperitoneal injection of 1.5×10^7 cells per mouse. After intraperitoneal injection of the LY8-RCHO-Luc cells, mice were randomized into 6 groups (7 mice in every group) and given saline, R-CHOP, duvelisib, abemaciclib, R-CHOP+duvelisib, and R-CHOP+abemaciclib, respectively. Mice inoculated with the NU-DUL-1-RCHO-Luc cells were randomly divided into 6 groups (7 mice in every group), and were given saline, R-CHOP, duvelisib, AZD4547, R-CHOP+duvelisib, and R-CHOP+AZD4547, respectively. […] Tumor growth was monitored by bioluminescence at day 50 and day 90 after inoculation. For in vivo luminescence imaging, D-luciferin (Promega, Madison, Wis.) was intraperitoneally injected into mice (150 mg/kg). […] Luminescence images were captured with an exposure time of 30 seconds and the signal intensity of the tumor was measured by using Bruker MI software. The survival time of each mouse was recorded. […]\n(§5) Tumor tissues from patients or animal models were fixed with 4% formalin, embedded in paraffin and sectioned. […] Immunoreactivity was then detected by using a GTVision III immunohistochemical detection kit (GK500705; Gene Tech Inc., Shanghai, China) according to its instructions. Quantitative scoring of immunostaining for SOX2, p-AKT, CDK6, FGFR1 and FGFR2 was performed on three independent sections under the microscope, according to the formula: score=3 (strong positive)×percentage+2 (medium positive)×percentage+1 (weak positive)×percentage+0 (negative)×percentage."}, "[5]": {"tested_on": "SOX2 in tumor tissues grown from NU-DUL-1-RCHO-Luc cells", "experiment": "SOX2 immunohistochemical staining of tumor tissues from the transplantation model", "format": "in vivo, SCID mice", "conditions": "tumors from NU-DUL-1-RCHO-Luc cells; compared with saline control", "description": "as §4, §5"}, "[6]": {"conditions": "inhibitor alone at increasing concentrations"}, "[7]": {"conditions": "inhibitor at increasing concentrations with CHO"}}, "note": "“Also recorded” adds a separate entry of the source."}
{"smiles": "C[C@H](Nc1ncnc2[nH]cnc12)c1cc2cccc(Cl)c2c(=O)n1-c1ccccc1", "note": "[duvelisib]", "values": [{"measurement": "cytotoxicity (induction of cell death), inhibitor used alone", "setting": "LY8-RCHO cells; [6]", "value": "only slightly somewhat cytotoxic; also recorded: negligible effect on direct induction of cell death"}, {"measurement": "reversal of resistance to CHO (cytotoxicity of CHO), inhibitor co-treated with CHO", "setting": "LY8-RCHO cells; [7]", "value": "significantly enhanced the cytotoxicity of CHO in the two RCHO-resistant cell lines in a dose-dependent manner; also recorded: significantly reversed resistance of RCHO-resistant cells to CHO"}, {"measurement": "cytotoxicity (induction of cell death), inhibitor used alone", "setting": "NU-DUL-1-RCHO cells; [6]", "value": "only slightly somewhat cytotoxic; also recorded: negligible effect on direct induction of cell death"}, {"measurement": "reversal of resistance to CHO (cytotoxicity of CHO), inhibitor co-treated with CHO", "setting": "NU-DUL-1-RCHO cells; [7]", "value": "significantly enhanced the cytotoxicity of CHO in the two RCHO-resistant cell lines in a dose-dependent manner; also recorded: significantly reversed resistance of RCHO-resistant cells to CHO"}, {"measurement": "membrane expression of CD20", "setting": "[1]", "value": "significantly reduced"}, {"measurement": "membrane expression of the other three mCRPs (CD46, CD55, CD59)", "setting": "[1]", "value": "the other three mCRPs did not"}, {"measurement": "membrane expression of CD20", "setting": "[2]", "value": "significantly reduced"}, {"measurement": "membrane expression of the other three mCRPs (CD46, CD55, CD59)", "setting": "[2]", "value": "the other three mCRPs did not"}, {"measurement": "AKT phosphorylation and expression of SOX2 and FGFR1/2", "setting": "[3]", "value": "reduces expression of SOX2 and FGFR1/2 by inhibiting AKT phosphorylation; also recorded: prevented phosphorylation of AKT and induced degradation of SOX2"}, {"measurement": "levels of CSC-associated molecules (OCT4, NANOG, KLF4, c-MYC, CD34, CD133)", "setting": "[3]", "value": "significantly reduced levels of CSC-associated molecules in the RCHO-resistant cells"}, {"measurement": "SOX2 expression level in tumor tissue (IHC)", "setting": "[4]", "value": "significantly reduced the expression levels of SOX2 compared with a saline control"}, {"measurement": "SOX2 expression level in tumor tissue (IHC)", "setting": "[5]", "value": "significantly reduced the expression levels of SOX2 compared with a saline control"}]}
